Test results taken from publication PMC10366102, “Dose escalation and expansion cohorts in patients with advanced breast cancer in a Phase I study of the CDK7-inhibitor samuraciclib” (Nature Communications, 2023).
Read-outs that look alike come from different tables or passages of the source.

Test system: patients with advanced/metastatic solid tumors
Details: for TEAE: Upper respiratory tract infection / TEAE: Urinary tract infection: Module 1A
Excerpt: In this Phase I study (ClinicalTrials.gov: NCT03363893), male and female patients with locally advanced/metastatic solid tumors received samuraciclib in dose escalation cohorts (at least 3 and up to 6 evaluable patients permitted per dose cohort) to determine the MTD (see Supplementary Information for definition). An additional 6 to 12 male or female patients with breast cancer were enrolled to a paired biopsy cohort to evaluate the pharmacodynamic effects of samuraciclib in tumor tissue, initiated after determining the minimally biologically active dose, defined by a 25-30% reduction in signal for pPolII in lymphocytes after 21 days of dosing or more.
For inclusion in the paired biopsy cohort, only patients with breast cancer with lesions amenable to biopsy were recruited. A full list of inclusion/exclusion criteria is provided in the Supplementary Information.
Patients initially received an oral dose of samuraciclib at Cycle 0, Day 1 for PK evaluation, followed by a 48-hour interval then continuous daily dosing for 21 days (Cycle 1). Dosing continued in 21-day cycles until the patient no longer gained clinical benefit or had intolerable toxicity. At least 3 evaluable patients in a cohort had to complete Cycle 1 before any dose escalation was considered.
As Module 1A was a ‘first time in human’ safety study, initial efficacy was evaluated as a secondary endpoint using the DCR, defined as the percentage of patients with a complete response (CR), PR or stabilization of disease at first on treatment RECIST assessment. To allow for the evaluation of longer-term benefit, Module 1B-1 and Module 2A used the CBR as a secondary endpoint, defined as the percentage of patients with CR or PR or stabilization of disease for at least 24 weeks between enrollment and disease progression or death due to any cause. In addition, the ORR was assessed, defined as the percentage of patients who had at least 1 objective response (CR or PR) prior to any evidence of progression. […] Statistical analyses of PFS using the Kaplan-Meier method were performed on the ITT population - defined as all enrolled patients. AEs were summarized from the Safety Population - defined as all patients who received at least 1 dose of samuraciclib - using the MedDRA system organ class (SOC), preferred term (PT), and graded according to CTCAE V5.0 (Supplementary Information). […]
In the Module 1A dose escalation cohort, patients initially received 1 oral dose of samuraciclib at Cycle 0, Day 1. In the absence of a dose-limiting toxicity (DLT) and following a washout period of at least 48 hours, patients could then enter Cycle 1 and receive samuraciclib daily. In the continued absence of a DLT, each patient could continue to receive samuraciclib daily for a minimum of 21 days (Cycle 1) and could continue to receive additional 21-day cycles of treatment until they were no longer gaining […]
treatment visit was conducted (within 3 days after the last samuraciclib dose). An end of study visit was conducted 28 to 35 days after the last dose of samuraciclib.
At least 3 and up to 6 evaluable patients were required for each dose cohort. At least 3 evaluable patients in a cohort had to complete at least one 21-day cycle of dosing before a Safety Review Committee (SRC), composed of study site investigators and Sponsor medical personnel, could review and initiate the next cohort and dose escalation. Within the initial cohorts there was a staggered interval, with subsequent patients not being dosed until the first patient within each cohort had completed 7 days of samuraciclib monotherapy.
Patient enrolment in the dose escalation cohort proceeded according to a Bayesian model rolling 6 […]
2. If 1 patient experienced a DLT in a group of 3 or more evaluable patients, then the cohort was expanded to include 6 evaluable patients. […]
dose escalation occurred.
3. If at least 2 patients experienced a DLT in a cohort of up to 6 patients, irrespective of the number of […]

## CC(C)c1cnn2c(NCc3ccccc3)cc(NC[C@H]3CCNC[C@@H]3O)nc12 [samuraciclib, Samuraciclib]
120 mg OD N=6
  TEAE: Upper respiratory tract infection: 5 (83.3) participants (%)
  TEAE: Urinary tract infection: 0 participants (%)
240 mg OD N=12
  TEAE: Upper respiratory tract infection: 1 (8.3) participants (%)
  TEAE: Urinary tract infection: 1 (8.3) participants (%)
360 mg OD N=12
  TEAE: Upper respiratory tract infection: 1 (8.3) participants (%)
  TEAE: Urinary tract infection: 1 (8.3) participants (%)
480 mg OD N=6
  TEAE: Upper respiratory tract infection: 0 participants (%)
  TEAE: Urinary tract infection: 1 (16.7) participants (%)
OD
  Lowest dose tested in humans that has demonstrated biological activity: 120 mg
  MBAD originally declared by the SRC: 240 mg
OD in a fasted state
  Non-tolerated dose: 480 mg
both, human, in vivo
  ALT increased; All AEs: 8 (18.2) patients (%)
  ALT increased; Grade ≥3: 1 (2.3) patients (%)
  AST increased; All AEs: 7 (15.9) patients (%)
  AST increased; Grade ≥3: 0 patients (%)
  Abdominal pain upper; All AEs: 4 (9.1) patients (%)
  Abdominal pain upper; Grade ≥3: 0 patients (%)
  Abdominal pain; All AEs: 12 (27.3) patients (%)
  Abdominal pain; Grade ≥3: 0 patients (%)
  Anemia; All AEs: 10 (22.7) patients (%)
  Anemia; Grade ≥3: 2 (4.5) patients (%)
  Any treatment-emergent AE; All AEs: 44 (100.0) patients (%)
  Any treatment-emergent AE; Grade ≥3: 21 (47.7) patients (%)
  Back pain; All AEs: 6 (13.6) patients (%)
  Back pain; Grade ≥3: 0 patients (%)
  Constipation; All AEs: 7 (15.9) patients (%)
  Constipation; Grade ≥3: 0 patients (%)
  Cough; All AEs: 8 (18.2) patients (%)
  Cough; Grade ≥3: 0 patients (%)
  Decreased appetite; All AEs: 9 (20.5) patients (%)
  Decreased appetite; Grade ≥3: 1 (2.3) patients (%)
  Diarrhea; All AEs: 38 (86.4) patients (%)
  Diarrhea; Grade ≥3: 2 (4.5) patients (%)
  Dizziness; All AEs: 2 (4.5) patients (%)
  Dizziness; Grade ≥3: 0 patients (%)
  Drug-related: ALT increased: 3 (6.8) participants (%)
  Drug-related: AST increased: 4 (9.1) participants (%)
  Drug-related: Abdominal pain: 8 (18.2) participants (%)
  Drug-related: Abdominal pain upper: 2 (4.5) participants (%)
  Drug-related: Anaemia: 3 (6.8) participants (%)
  Drug-related: Blood creatinine increased: 3 (6.8) participants (%)
  Drug-related: Decreased appetite: 8 (18.2) participants (%)
  Drug-related: Dehydration: 2 (4.5) participants (%)
  Drug-related: Diarrhoea: 36 (81.8) participants (%)
  Drug-related: Dry mouth: 2 (4.5) participants (%)
  Drug-related: Dyspepsia: 2 (4.5) participants (%)
  Drug-related: Dysphagia: 2 (4.5) participants (%)
  Drug-related: Fatigue: 14 (31.8) participants (%)
  Drug-related: Gastroesophageal reflux disease: 3 (6.8) participants (%)
  Drug-related: Mucosal inflammation: 2 (4.5) participants (%)
  Drug-related: Nausea: 34 (77.3) participants (%)
  Drug-related: Thrombocytopenia: 3 (6.8) participants (%)
  Drug-related: Vomiting: 35 (79.5) participants (%)
  Drug-related: Weight decreased: 4 (9.1) participants (%)
  Dysgeusia; All AEs: 1 (2.3) patients (%)
  Dysgeusia; Grade ≥3: 0 patients (%)
  Dysphagia; All AEs: 2 (4.5) patients (%)
  Dysphagia; Grade ≥3: 0 patients (%)
  Dyspnea; All AEs: 6 (13.6) patients (%)
  Dyspnea; Grade ≥3: 2 (4.5) patients (%)
  Fatigue; All AEs: 17 (38.6) patients (%)
  Fatigue; Grade ≥3: 0 patients (%)
  Grade ≥3: GGT increased: 2 (4.5) participants (%)
  Grade ≥3: Malignant neoplasm progression: 2 (4.5) participants (%)
  Grade ≥3: Pulmonary embolism: 2 (4.5) participants (%)
  Grade ≥3: Thrombocytopenia: 2 (4.5) participants (%)
  Headache; All AEs: 4 (9.1) patients (%)
  Headache; Grade ≥3: 0 patients (%)
  Hyperglycemia; All AEs: 1 (2.3) patients (%)
  Hyperglycemia; Grade ≥3: 0 patients (%)
  Hypocalcaemia; All AEs: 2 (4.5) patients (%)
  Hypocalcaemia; Grade ≥3: 0 patients (%)
  Hypokalaemia; All AEs: 0 patients (%)
  Hypokalaemia; Grade ≥3: 0 patients (%)
  Nausea; All AEs: 34 (77.3) patients (%)
  Nausea; Grade ≥3: 0 patients (%)
  Participants with any drug-related TEAE: 44 (100.0) participants (%)
  Rash; All AEs: 1 (2.3) patients (%)
  Rash; Grade ≥3: 0 patients (%)
  Stomatitis; All AEs: 1 (2.3) patients (%)
  Stomatitis; Grade ≥3: 0 patients (%)
  Taste disorder; All AEs: 0 patients (%)
  Taste disorder; Grade ≥3: 0 patients (%)
  Thrombocytopenia reported as Grade ≥3: 2 patients
  Upper respiratory tract infection; All AEs: 8 (18.2) patients (%)
  Upper respiratory tract infection; Grade ≥3: 0 patients (%)
  Urinary tract infection; All AEs: 5 (11.4) patients (%)
  Urinary tract infection; Grade ≥3: 0 patients (%)
  Vomiting; All AEs: 36 (81.8) patients (%)
  Vomiting; Grade ≥3: 1 (2.3) patients (%)
  Weight decreased; All AEs: 4 (9.1) patients (%)
  Weight decreased; Grade ≥3: 1 (2.3) patients (%)
both, human, in vivo, 21 days
  DLT: Decreased appetite: 1 (3.0) patients (%)
  DLT: Diarrhoea: 1 (3.0) patients (%)
  DLT: Gastroesophageal reflux disease: 1 (3.0) patients (%)
  DLT: Nausea: 1 (3.0) patients (%)
  DLT: Oesophagitis: 1 (3.0) patients (%)
  DLT: Stomatitis: 1 (3.0) patients (%)
  DLT: Thrombocytopenia: 1 (3.0) patients (%)
  DLT: Vomiting: 2 (6.1) patients (%)
  DLT: Weight decreased: 1 (3.0) patients (%)
  Patients with a dose-limiting toxicity: 3/6
  Patients with any DLT: 6 (18.2) patients (%)
both, human, in vivo, po
  Drug-related: Oral pain: 2 (4.5) participants (%)
During therapy, over the first 15 days then plateau, 240 mg OD and 360 mg OD
  Drop in platelet counts: ~20%
Once daily, monotherapy
  Maximum tolerated dose (MTD): 360 mg
